The source made the active and inactive calls. No cut-off for these calls is given here.
How the values were obtained:
[1] = biological target: T1, Tyrosine-protein phosphatase non-receptor type 11 (Homo sapiens) (UniProt Q06124); assay: Inhibition of SHP2 catalytic domain assessed as inhibition of pNPP to p-nitrophenol conversion at 50 uM after 5 mins by spectrophotometry
T1 sequence (whole entry): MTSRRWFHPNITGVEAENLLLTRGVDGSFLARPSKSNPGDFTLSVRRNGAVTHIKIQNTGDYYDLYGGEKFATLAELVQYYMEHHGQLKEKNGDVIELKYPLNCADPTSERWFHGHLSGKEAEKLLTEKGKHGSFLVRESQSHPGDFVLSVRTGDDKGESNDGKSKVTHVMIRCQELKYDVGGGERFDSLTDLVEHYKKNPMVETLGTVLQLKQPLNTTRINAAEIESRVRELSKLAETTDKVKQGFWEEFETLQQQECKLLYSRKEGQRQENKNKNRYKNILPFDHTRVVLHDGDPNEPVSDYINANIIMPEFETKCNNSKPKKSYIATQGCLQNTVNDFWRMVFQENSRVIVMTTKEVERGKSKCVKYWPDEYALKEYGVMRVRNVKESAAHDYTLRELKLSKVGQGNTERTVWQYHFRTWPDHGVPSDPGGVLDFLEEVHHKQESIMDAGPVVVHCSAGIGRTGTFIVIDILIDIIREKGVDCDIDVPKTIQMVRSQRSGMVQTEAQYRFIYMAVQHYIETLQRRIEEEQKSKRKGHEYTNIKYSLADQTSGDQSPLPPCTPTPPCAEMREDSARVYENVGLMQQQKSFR

[2] = biological target: Tyrosine-protein phosphatase non-receptor type 6 (Homo sapiens, UniProt P29350); assay: Inhibition of SHP1
[3] = biological target: T2, Tyrosine-protein phosphatase non-receptor type 1 (Homo sapiens, UniProt P18031); assay: Inhibition of PTP1B
T2 sequence (P18031 whole entry): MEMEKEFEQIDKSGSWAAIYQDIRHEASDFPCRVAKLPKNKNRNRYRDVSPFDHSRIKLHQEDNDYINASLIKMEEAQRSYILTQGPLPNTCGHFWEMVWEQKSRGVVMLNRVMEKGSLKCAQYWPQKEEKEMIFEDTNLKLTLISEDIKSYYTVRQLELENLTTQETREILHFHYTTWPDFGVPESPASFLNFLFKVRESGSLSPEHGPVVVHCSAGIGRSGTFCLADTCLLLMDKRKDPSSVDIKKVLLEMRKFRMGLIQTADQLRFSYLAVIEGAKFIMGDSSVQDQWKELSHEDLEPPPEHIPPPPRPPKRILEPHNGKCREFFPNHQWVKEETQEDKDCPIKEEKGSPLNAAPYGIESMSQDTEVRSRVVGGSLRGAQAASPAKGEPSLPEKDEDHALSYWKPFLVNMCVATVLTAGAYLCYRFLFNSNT

[4] = biological target: T3, Tyrosine-protein phosphatase non-receptor type 2 (Homo sapiens, UniProt P17706); assay: Inhibition of TC-PTP
T3 sequence (P17706 whole entry): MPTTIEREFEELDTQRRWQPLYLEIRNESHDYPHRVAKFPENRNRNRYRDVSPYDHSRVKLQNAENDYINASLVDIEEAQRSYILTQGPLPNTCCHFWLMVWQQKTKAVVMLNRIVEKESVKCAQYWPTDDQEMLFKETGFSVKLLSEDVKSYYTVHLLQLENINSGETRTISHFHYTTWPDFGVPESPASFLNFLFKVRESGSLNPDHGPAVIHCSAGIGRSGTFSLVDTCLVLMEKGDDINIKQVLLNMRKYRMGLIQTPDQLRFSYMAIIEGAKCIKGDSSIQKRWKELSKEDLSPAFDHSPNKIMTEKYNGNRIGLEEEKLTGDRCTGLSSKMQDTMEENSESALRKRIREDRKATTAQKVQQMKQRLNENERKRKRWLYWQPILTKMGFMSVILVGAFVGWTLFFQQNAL

[5] = biological target: Receptor-type tyrosine-protein phosphatase F (Homo sapiens, UniProt P10586); assay: Inhibition of LAR
[6] = biological target: T4, Low molecular weight phosphotyrosine protein phosphatase (Homo sapiens, UniProt P24666); assay: Inhibition of LMW-PTP
T4 sequence (P24666 whole entry): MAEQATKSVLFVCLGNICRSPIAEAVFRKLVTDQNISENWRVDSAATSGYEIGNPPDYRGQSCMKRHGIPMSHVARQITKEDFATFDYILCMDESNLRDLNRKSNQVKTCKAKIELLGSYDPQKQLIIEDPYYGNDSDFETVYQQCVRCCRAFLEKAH

[7] = biological target: T5, Tyrosine-protein phosphatase non-receptor type 22 (Homo sapiens) (UniProt Q9Y2R2); assay: Inhibition of LYP at 100 uM
T5 sequence (whole entry): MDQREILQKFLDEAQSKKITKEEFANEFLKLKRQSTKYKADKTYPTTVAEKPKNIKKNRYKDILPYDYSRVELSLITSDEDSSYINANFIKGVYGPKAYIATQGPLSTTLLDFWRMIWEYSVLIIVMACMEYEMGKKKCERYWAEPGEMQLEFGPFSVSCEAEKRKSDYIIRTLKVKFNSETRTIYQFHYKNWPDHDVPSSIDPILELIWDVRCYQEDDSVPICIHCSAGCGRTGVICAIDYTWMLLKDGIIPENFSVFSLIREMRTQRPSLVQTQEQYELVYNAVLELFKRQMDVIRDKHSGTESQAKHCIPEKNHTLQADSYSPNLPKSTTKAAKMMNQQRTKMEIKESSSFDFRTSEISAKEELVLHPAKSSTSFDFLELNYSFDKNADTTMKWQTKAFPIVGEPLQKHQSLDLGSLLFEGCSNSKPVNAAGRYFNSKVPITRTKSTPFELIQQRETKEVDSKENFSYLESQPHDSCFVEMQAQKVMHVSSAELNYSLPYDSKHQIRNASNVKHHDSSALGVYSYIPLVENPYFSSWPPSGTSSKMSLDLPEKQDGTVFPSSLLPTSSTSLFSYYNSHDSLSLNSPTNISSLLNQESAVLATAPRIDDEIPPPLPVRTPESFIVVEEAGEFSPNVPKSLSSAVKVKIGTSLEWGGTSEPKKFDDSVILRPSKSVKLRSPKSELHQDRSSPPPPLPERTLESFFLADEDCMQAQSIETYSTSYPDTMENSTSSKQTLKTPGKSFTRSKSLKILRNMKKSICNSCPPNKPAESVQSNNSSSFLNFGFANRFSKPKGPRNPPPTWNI

[8] = biological target: Receptor-type tyrosine-protein phosphatase alpha (Homo sapiens) (UniProt P18433); assay: Inhibition of PTPalpha at 100 uM
[9] = biological target: Dual specificity protein phosphatase 3 (Homo sapiens) (UniProt P51452); assay: Inhibition of VHR at 100 uM
[10] = Inhibition of Cdc14 at 100 uM

Chain of Dual specificity protein phosphatase 3 (Homo sapiens) (P51452 whole entry, looked up): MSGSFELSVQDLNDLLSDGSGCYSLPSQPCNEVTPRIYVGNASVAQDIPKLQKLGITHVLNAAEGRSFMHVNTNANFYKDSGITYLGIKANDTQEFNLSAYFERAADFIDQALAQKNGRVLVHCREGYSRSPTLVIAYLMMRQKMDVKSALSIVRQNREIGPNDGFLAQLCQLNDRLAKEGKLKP
Chain of Receptor-type tyrosine-protein phosphatase alpha (Homo sapiens) (P18433 20-802 limits assumed): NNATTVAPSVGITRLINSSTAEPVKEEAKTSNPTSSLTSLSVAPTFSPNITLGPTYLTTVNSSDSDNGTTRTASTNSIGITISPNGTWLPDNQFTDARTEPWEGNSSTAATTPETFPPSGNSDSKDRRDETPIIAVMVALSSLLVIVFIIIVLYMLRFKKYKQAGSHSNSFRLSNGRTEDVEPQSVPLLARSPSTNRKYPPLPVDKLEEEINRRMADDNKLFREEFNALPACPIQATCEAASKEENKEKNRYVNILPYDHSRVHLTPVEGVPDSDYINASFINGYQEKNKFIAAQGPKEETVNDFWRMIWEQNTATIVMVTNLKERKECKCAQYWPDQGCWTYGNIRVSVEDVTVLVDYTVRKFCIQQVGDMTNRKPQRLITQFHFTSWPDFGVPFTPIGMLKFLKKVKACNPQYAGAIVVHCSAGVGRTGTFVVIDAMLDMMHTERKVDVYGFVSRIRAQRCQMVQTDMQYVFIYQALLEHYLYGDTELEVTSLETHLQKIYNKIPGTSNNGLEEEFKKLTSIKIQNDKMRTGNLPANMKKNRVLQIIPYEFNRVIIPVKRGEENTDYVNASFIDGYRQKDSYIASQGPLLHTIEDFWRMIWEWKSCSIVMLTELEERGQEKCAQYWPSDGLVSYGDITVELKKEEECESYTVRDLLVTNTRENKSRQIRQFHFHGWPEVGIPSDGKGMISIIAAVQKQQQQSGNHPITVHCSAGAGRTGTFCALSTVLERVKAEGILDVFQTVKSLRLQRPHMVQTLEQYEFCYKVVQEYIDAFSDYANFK
Chain of Tyrosine-protein phosphatase non-receptor type 6 (P29350 whole entry): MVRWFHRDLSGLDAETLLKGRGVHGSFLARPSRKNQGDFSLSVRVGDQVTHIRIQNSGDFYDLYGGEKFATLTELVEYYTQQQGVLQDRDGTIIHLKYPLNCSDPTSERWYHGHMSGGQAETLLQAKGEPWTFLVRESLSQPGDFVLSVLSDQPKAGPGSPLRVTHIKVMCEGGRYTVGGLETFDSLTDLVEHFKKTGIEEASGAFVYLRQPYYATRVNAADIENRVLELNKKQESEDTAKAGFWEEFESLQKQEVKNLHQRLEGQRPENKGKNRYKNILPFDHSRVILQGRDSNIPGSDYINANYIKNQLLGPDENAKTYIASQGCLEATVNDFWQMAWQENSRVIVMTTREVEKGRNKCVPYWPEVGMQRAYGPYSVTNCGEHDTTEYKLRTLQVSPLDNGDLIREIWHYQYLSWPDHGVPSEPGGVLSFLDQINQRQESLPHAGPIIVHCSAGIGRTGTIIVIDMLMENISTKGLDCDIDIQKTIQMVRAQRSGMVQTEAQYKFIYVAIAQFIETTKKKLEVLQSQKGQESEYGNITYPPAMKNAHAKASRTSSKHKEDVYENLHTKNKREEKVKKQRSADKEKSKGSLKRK
Chain of Receptor-type tyrosine-protein phosphatase F (P10586 whole entry): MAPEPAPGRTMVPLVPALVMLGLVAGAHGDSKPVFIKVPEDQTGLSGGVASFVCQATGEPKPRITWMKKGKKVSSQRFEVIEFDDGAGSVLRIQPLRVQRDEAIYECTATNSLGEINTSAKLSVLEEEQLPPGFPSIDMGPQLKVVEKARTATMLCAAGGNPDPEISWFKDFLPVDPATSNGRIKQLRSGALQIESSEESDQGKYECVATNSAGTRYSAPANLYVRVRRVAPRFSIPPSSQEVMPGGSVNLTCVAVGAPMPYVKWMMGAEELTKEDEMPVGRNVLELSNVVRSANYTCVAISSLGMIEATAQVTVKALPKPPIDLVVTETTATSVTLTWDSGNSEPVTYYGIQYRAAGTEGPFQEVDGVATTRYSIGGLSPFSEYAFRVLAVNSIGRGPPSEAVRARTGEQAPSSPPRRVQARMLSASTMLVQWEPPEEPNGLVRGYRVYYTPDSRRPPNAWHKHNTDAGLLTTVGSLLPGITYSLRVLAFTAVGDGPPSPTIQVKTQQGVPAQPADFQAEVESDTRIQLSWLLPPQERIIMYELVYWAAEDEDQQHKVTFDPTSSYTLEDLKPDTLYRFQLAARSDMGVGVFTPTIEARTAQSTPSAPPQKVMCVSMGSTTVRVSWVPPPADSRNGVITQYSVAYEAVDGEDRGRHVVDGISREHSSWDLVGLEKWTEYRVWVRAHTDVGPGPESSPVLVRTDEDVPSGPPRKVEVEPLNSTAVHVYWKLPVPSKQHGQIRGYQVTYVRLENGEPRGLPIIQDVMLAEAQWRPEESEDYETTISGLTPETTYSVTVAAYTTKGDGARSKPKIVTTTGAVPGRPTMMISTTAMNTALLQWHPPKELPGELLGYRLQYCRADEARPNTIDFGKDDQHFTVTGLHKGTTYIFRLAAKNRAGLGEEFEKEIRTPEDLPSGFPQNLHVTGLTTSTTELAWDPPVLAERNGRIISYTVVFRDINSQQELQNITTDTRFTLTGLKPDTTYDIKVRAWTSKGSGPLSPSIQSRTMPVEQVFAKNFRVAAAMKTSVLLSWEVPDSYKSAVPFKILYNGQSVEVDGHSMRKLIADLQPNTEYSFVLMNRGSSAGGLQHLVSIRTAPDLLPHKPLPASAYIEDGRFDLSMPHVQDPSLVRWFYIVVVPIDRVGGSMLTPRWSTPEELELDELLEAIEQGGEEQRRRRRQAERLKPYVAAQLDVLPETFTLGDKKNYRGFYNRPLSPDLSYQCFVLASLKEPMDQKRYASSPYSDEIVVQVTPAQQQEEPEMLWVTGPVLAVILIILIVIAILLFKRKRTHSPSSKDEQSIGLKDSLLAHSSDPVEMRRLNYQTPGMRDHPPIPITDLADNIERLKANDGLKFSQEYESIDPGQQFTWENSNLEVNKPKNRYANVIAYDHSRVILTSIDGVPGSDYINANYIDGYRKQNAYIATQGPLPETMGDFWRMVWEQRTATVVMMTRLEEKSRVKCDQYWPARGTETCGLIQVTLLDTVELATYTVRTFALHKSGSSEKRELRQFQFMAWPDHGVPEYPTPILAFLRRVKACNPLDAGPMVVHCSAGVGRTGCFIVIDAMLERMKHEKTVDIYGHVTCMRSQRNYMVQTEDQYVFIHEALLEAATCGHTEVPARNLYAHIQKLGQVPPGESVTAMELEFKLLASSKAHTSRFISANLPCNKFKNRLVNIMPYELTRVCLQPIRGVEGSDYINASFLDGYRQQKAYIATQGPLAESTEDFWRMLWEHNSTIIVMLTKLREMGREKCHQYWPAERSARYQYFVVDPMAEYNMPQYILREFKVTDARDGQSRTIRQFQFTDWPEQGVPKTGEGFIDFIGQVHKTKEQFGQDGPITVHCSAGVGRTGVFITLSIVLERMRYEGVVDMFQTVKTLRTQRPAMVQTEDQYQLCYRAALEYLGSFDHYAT

Cc1cc(S(=O)(=O)O)c(S(=O)(=O)O)cc1N1N=C(C(=O)O)CC1=O
inhibition [1]: 91%
IC50 [2]: 14 µM
IC50 [3]: 118 µM
IC50 [4]: > 100 µM
IC50 [5]: > 100 µM
IC50 [6]: > 100 µM
inhibition [7]: inactive
inhibition [8]: inactive
inhibition [9]: inactive
inhibition [10]: inactive

From ChEMBL document CHEMBL1800013, “Small molecule inhibitors of SHP2 tyrosine phosphatase discovered by virtual screening” (Bioorg Med Chem Lett, 2011)
